Laboratory results published in US12152012B2, “BRAG2 inhibitors and applications thereof” (CENTRE NATIONAL DE LA RECHERCHE SCIENTIFIQUE, priority 2018, dated 2024).
Entries after “also recorded” stand apart in the source; their conditions may differ.

What was measured:
[1] = Stability of DMSO stock solution (1H-NMR); assay type: physicochemical; details: kept in DMSO for several months
[2] = test system: tubulin and actin networks in Hela cells; test: Immunostaining and confocal microscopy of Hela cells; assay type: cell-based, human; details: 50 μM, 30 min
Procedure: FIG. 10: Bragsin2 has no effect on the tubulin and actin networks in Hela cells. HeLa cells were treated with either DMSO (0.25%) or Bragsin2 (50 μM) for 30 min, immunostained for α-tubulin (green channel) or F-actin (magenta channel) and analysed by confocal microscopy.
Hela cells were grown in Dulbecco's modified Eagle's medium supplemented with Glutamax™ and 10% fetal bovine serum (Invitrogen). For immunofluorescence studies, cells were grown on Labtek glass slides (Nunc) and transfected for 18 to 24 h using Lipofectamine 2000 (Invitrogen), according to the supplier's instructions. […]
Immunostaining procedure was as described in (Viaud, J. et al. Structure-based discovery of an inhibitor of Arf activation by Sec7 domains through targeting of protein-protein complexes. Proc Natl Acad Sci USA 104, 10370-5 (2007)) except that secondary antibody incubation was performed for 1h using Alexa 488-conjugated goat anti-mouse (1:600) or donkey anti-sheep (1:500) IgG and Alexa 647-conjugated phalloidin (1:100). […] Images were bidirectionally recorded using an inverted Leica TCS SP8 laser-scanning confocal microscope with a 100× (N. A. 1.40) oil objective (HCX APO, Leica). Fluorochromes were detected sequentially using excitation laser lines at 488 nm (Alexa 488), 594 nm (mCherry) and 633 nm (Alexa 647). […]

[3] = target: T1, BRAG2 binding to PIP2-containing liposomes (Homo sapiens, UniProt Q6DN90); test: Liposome flotation assay
T1 construct: human BRAG2^Sec7 (390-594) and BRAG2^Sec7PH (390-811); made in house
T1 sequence (Q6DN90 512-933): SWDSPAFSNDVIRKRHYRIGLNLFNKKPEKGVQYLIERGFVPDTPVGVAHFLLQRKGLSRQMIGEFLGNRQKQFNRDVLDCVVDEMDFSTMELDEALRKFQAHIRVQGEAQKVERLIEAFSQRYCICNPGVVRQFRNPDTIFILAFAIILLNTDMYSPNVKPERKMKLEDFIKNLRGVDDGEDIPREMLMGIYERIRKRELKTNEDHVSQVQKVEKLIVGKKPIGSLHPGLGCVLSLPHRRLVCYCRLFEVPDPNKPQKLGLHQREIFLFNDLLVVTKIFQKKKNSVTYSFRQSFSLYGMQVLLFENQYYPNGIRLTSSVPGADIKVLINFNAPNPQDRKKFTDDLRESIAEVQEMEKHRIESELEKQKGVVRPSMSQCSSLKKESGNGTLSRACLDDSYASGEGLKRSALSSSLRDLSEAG
Procedure: FIG. 4. Bragsin is a non-competitive inhibitor of protein-membrane interactions • a. Bragsin1 (in violet) overlaps with the canonical phosphoinositide-binding site of the PH domain of BRAG2. IP3 (in red) is from the GRP1-IP3 complex (DiNitto, J. P. et al. Structural basis and mechanism of autoregulation in 3-phosphoinositide-dependent Grp1 family Arf GTPase exchange factors. Mol Cell 28, 569-83 (2007)). The position of the membrane is indicated by an arrow. • b. […] Binding was measured by liposome flotation. U: bottom fraction, containing unbound proteins; B: top fraction, containing liposome-bound proteins. […] Quantification is shown below. • c. Inhibition of BRAG2 by Bragsin2 is stronger in the presence of liposomes that contain PIP2 lipids. Kinetics were measured as in FIG. 2b.
Bragsin may partially overlap with a lipid bound at this position was predicted by comparison of the PH domain of a cytohesin ArfGEF with a phosphoinositide headgroup bound to the canonical lipid-binding site (DiNitto, J. P. et al. Mol Cell 28, 569-83 (2007))(FIG. 4a). Bragsin inhibition could act by blocking the interaction of BRAG2 with membranes. […] Alternatively, Bragsin may bind at the interface between the PH domain and the membrane if inhibition is sensitive to the lipid composition of the membrane. […]

Structure (SMILES): Cc1ccc2oc(C(F)(F)F)cc(=O)c2c1[N+](=O)[O-] [Bragsin1, 6-methyl-5-nitro-2-(trifluoromethyl)-4H-chromen-4-one]
- Stability in DMSO stock solution by 1H-NMR [1]: completely decomposed

Structure (SMILES): COc1ccc2oc(C(F)(F)F)cc(=O)c2c1[N+](=O)[O-] [Bragsin2, 6-methoxy-5-nitro-2-(trifluoromethyl)-4H-chromen-4-one]
- Effect on tubulin and actin networks [2]: no effect
- Displacement of BRAG2 from PIP2-containing liposomes [3]: did not displace; also recorded: does not impair binding
